pIC50: −log10 of the molar value.
Assays:
TIE2 = biological target: T1, TIE2 (Homo sapiens, UniProt Q02763); assay: In vitro protein kinase assay (radioisotopic 33P, FlashPlate); assay type: biochemical; details: recombinant human kinase
T1 construct: made in house; host or cells: Sf9 insect cells (baculovirus)
Method: (§1) The effect of the thiazole derivatives was tested on recombinant, human protein kinases in in vitro protein kinase assays.
(§2) The protein kinases were expressed in Sf9 insect cells as human recombinant GST-fusion proteins or as His-tagged proteins by means of the baculovirus expression system.
(§3) The kinase activity was measured with a radioisotopic protein kinase assay by measuring the incorporation of ^33P-phosphate into proteins or peptide substrates. The assays were performed in FlashPlate™ microtiter scintillation plates and incorporation of ^33P-phosphate was determined with a microplate scintillation counter.

Aurora A = biological target: T2, Aurora A (Homo sapiens, UniProt O14965); assay: as above; assay type: biochemical; details: recombinant human kinase
T2 construct: made in house; host or cells: Sf9 insect cells (baculovirus)
T2 sequence (O14965 1-403): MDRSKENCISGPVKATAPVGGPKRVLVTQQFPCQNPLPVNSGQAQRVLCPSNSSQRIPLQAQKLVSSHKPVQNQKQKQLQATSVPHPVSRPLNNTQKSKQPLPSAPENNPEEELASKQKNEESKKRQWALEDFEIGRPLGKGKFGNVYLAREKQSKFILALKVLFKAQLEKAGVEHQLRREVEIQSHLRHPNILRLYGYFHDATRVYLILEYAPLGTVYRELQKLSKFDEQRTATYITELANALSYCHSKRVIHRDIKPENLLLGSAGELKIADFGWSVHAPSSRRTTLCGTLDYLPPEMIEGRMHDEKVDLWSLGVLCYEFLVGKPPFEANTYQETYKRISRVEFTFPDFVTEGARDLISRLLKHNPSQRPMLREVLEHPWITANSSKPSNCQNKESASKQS
Method: as §1, §2, §3

FLT3 = biological target: T3, FLT3 (Homo sapiens, UniProt P36888); assay: as above; assay type: biochemical; details: recombinant human kinase
T3 construct: made in house; host or cells: Sf9 insect cells (baculovirus)
T3 sequence (P36888 27-993): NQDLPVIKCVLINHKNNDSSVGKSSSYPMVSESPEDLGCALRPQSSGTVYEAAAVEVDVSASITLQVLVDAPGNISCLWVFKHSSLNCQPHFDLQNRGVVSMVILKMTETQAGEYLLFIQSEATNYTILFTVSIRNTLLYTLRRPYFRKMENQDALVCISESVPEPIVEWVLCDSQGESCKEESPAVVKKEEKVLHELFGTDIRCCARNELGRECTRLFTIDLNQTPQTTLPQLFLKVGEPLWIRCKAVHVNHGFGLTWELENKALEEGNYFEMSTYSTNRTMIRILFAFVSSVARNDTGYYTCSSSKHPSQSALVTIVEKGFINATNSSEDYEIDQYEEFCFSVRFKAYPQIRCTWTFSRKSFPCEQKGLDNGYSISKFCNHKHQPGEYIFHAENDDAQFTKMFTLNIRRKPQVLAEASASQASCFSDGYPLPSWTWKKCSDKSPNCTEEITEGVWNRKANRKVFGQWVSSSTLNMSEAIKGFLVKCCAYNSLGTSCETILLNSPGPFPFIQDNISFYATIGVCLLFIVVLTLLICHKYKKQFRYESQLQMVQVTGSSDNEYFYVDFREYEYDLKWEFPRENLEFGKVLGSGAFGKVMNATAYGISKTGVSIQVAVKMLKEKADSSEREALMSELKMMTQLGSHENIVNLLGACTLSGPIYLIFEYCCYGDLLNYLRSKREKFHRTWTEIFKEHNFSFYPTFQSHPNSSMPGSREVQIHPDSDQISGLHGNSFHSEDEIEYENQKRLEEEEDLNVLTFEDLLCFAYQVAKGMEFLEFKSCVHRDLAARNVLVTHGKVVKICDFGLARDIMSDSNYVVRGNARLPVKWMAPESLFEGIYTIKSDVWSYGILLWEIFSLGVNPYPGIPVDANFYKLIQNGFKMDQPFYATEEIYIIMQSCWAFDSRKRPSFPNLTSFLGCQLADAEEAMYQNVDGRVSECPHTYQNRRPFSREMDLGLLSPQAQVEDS
Method: as §1, §2, §3

EGF-R = biological target: T4, EGF-R (Homo sapiens, UniProt P00533); assay: as above; assay type: biochemical; details: recombinant human kinase
T4 construct: made in house; host or cells: Sf9 insect cells (baculovirus)
Method: as §1, §2, §3

VEGF-R3 = biological target: T5, VEGF-R3 (Homo sapiens, UniProt P35916); assay: as above; assay type: biochemical; details: recombinant human kinase
T5 construct: made in house; host or cells: Sf9 insect cells (baculovirus)
Method: as §1, §2, §3

VEGF-R2 [1] = biological target: T6, VEGF-R2 (Homo sapiens, UniProt P35968); assay: as above; assay type: biochemical; design: made in house; host or cells: Sf9 insect cells (baculovirus); details: recombinant human kinase
Method: as §1, §2, §3

PDGF-Rβ [2] = biological target: T7, PDGF-Rβ (Homo sapiens, UniProt P09619); assay: as above; assay type: biochemical; design: made in house; host or cells: Sf9 insect cells (baculovirus); details: recombinant human kinase
Method: as §1, §2, §3
Target sequence in this assay (P09619 33-1106): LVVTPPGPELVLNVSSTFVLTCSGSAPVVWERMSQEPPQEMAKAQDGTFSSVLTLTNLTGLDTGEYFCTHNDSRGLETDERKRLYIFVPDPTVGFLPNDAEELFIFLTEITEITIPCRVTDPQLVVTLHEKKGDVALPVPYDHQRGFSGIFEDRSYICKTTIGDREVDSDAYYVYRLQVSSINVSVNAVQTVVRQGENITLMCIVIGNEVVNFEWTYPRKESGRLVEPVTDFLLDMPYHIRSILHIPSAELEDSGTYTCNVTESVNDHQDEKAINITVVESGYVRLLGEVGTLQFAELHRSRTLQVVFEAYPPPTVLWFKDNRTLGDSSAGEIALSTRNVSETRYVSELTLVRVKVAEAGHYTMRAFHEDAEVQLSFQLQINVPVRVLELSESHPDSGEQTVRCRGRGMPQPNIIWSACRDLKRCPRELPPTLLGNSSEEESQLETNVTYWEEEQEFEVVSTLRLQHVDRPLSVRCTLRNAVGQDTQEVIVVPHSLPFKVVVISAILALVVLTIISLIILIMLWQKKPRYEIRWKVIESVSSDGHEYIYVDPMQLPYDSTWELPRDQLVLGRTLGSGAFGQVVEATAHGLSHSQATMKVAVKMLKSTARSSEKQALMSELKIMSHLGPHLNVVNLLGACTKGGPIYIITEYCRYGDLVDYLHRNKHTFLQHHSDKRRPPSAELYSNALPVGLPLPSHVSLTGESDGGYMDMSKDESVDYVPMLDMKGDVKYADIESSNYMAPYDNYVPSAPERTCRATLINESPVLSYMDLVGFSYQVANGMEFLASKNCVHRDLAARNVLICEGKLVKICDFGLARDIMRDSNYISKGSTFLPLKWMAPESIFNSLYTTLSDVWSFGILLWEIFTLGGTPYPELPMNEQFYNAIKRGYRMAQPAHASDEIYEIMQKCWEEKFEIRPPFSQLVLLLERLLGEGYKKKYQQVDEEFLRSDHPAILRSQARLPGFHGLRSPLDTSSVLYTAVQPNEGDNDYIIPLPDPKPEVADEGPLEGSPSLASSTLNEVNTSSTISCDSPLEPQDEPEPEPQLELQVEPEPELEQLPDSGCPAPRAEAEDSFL

Aurora B [3] = biological target: T8, Aurora B (Homo sapiens, UniProt Q96GD4); assay: as above; assay type: biochemical; design: made in house; host or cells: Sf9 insect cells (baculovirus); details: recombinant human kinase
Method: as §1, §2, §3

PDGF-Rα = biological target: T9, PDGF-Rα (Homo sapiens, UniProt P16234); assay: as above; assay type: biochemical; details: recombinant human kinase
T9 construct: made in house; host or cells: Sf9 insect cells (baculovirus)
Method: as §1, §2, §3

TRK-A = biological target: T10, TRK-A (Homo sapiens, UniProt P04629); assay: as above; assay type: biochemical; details: recombinant human kinase
T10 construct: made in house; host or cells: Sf9 insect cells (baculovirus)
Method: as §1, §2, §3

KIT = biological target: T11, KIT (Homo sapiens, UniProt P10721); assay: as above; assay type: biochemical; details: recombinant human kinase
T11 construct: made in house; host or cells: Sf9 insect cells (baculovirus)
Method: as §1, §2, §3

IRAK4 = biological target: T12, IRAK4 (Homo sapiens, UniProt Q9NWZ3); assay: as above; assay type: biochemical; details: recombinant human kinase
T12 construct: made in house; host or cells: Sf9 insect cells (baculovirus)
T12 sequence (Q9NWZ3 1-460): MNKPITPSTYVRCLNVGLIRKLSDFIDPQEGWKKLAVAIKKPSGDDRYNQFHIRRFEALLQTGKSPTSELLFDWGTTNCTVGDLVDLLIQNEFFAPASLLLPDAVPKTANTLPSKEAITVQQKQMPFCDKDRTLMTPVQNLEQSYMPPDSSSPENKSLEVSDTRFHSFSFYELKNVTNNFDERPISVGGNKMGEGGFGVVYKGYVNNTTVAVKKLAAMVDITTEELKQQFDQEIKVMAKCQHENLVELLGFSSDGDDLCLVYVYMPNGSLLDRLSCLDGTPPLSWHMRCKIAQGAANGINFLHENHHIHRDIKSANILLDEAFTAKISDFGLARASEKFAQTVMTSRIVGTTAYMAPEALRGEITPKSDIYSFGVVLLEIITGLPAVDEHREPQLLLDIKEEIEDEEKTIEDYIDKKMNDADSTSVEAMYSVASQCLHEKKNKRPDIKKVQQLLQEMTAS
Method: as §1, §2, §3

VEGF-R1 = biological target: T13, VEGF-R1 (Homo sapiens, UniProt P17948); assay: as above; assay type: biochemical; details: recombinant human kinase
T13 construct: made in house; host or cells: Sf9 insect cells (baculovirus)
Method: as §1, §2, §3

LCK = biological target: T14, LCK (Homo sapiens, UniProt P06239); assay: as above; assay type: biochemical; details: recombinant human kinase
T14 construct: made in house; host or cells: Sf9 insect cells (baculovirus)
Method: as §1, §2, §3

RET = biological target: T15, RET (Homo sapiens, UniProt P07949); assay: as above; assay type: biochemical; details: recombinant human kinase
T15 construct: made in house; host or cells: Sf9 insect cells (baculovirus)
Method: as §1, §2, §3

VEGF-R2 [4] = biological target: T6, VEGF-R2; assay: Cellular Receptor Tyrosine Kinase Assay (autophosphorylation, sandwich ELISA); assay type: cell-based; design: host or cells: unnamed cell line; details: ligand-induced receptor autophosphorylation in cells
Method: (§4) The effect of thiazole derivatives was tested by determining the inhibition of different receptor tyrosine kinases (RTKs) in various cell lines which expressed the following growth factor receptors: EGF-R, PDGF-R, TIE2, IGF-1R, EPHB4, and VEGF-R2. Receptor autophosphorylation was induced by specific ligands for each receptor. […] Test compounds were applied to cells prior to stimulation. Cells were lysed using a standard lysis buffer preserving the distinct phosphoprotein levels. RTK-phosphorylation was quantified via sandwich ELISA using receptor-specific capture antibodies and a phosphotyrosine antibody.
(§5) Sigmoidal inhibitor curves based on relative inhibition compared with phosphorylation levels under high control conditions were generated which allowed the determination of IC50 values for each test compound.

PDGF-Rβ [5] = biological target: T7, PDGF-Rβ; assay: as above; assay type: cell-based; design: host or cells: unnamed cell line; details: ligand-induced receptor autophosphorylation in cells
Method: as §4, §5
Target sequence in this assay (P09619 33-1106, species assumed): as the sequence (P09619 33-1106) above

Aurora B [6] = biological target: T8, Aurora B; assay: Cellular Aurora-B Kinase Assay (endoreduplication of genomic DNA, PI/FACS); assay type: cell-based; design: endogenous in cells; host or cells: HT29 colon carcinoma cells; details: HT29 colon-carcinoma cells, 3 days treatment, EndoR-population
Method: The effect of thiazole derivatives was tested in a cellular Aurora-B assay by measuring the effect of the test compounds on the endoreduplication (EndoR) of genomic DNA. Endoreduplication is detectable in cells as DNA-content higher then 4 n. Propidium Iodine (PI) was used to quantify the DNA content using a fluorescence activated cell sorter (FACS).
In the experiment, HT29 colon-carcinoma cells were treated with test compounds at different concentrations for 3 days. On day 5 cells were harvested and fixed in methanol. On day 6 cells were rehydrated and incubated with RNAse A and PI. Incorporated PI was detected by FACS measuring fluorescence emission at 650 nm upon excitation at 488 nm. For each compound concentration the percentage of EndoR-population as compared to the whole cell population was determined. For estimation of IC50 values of Aurora-B inhibition the percentages of EndoR-populations were plotted versus compound concentrations.

T4 sequence (P00533 25-1210): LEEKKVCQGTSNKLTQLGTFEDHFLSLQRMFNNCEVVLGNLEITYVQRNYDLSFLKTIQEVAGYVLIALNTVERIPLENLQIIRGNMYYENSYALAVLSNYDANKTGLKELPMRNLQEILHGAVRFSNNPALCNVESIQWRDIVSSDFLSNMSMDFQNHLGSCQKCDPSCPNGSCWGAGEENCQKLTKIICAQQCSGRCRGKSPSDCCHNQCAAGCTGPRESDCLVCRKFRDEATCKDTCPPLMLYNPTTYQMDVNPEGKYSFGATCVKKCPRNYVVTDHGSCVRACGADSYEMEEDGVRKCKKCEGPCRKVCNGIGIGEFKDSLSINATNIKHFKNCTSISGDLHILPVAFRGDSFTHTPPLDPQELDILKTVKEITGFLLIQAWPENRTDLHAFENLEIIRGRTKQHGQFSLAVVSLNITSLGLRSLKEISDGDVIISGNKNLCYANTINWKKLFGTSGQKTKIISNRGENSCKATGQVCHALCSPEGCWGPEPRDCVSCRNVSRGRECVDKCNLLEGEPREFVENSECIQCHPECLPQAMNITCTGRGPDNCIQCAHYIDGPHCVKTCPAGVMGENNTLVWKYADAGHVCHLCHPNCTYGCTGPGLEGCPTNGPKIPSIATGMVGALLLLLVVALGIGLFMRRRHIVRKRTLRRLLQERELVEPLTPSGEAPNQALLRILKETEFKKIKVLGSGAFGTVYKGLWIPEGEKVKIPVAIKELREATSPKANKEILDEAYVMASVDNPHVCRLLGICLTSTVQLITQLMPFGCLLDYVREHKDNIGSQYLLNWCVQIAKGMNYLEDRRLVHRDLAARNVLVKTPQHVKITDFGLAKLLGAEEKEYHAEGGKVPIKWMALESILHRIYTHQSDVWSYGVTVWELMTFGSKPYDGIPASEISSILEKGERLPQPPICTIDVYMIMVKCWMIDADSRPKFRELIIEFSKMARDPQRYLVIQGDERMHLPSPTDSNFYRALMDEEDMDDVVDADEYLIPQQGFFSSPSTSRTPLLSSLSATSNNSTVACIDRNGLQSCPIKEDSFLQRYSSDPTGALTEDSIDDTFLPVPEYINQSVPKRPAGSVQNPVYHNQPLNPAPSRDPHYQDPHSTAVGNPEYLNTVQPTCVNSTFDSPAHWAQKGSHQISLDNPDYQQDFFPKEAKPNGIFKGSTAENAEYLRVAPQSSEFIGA
T5 sequence (P35916 25-1363): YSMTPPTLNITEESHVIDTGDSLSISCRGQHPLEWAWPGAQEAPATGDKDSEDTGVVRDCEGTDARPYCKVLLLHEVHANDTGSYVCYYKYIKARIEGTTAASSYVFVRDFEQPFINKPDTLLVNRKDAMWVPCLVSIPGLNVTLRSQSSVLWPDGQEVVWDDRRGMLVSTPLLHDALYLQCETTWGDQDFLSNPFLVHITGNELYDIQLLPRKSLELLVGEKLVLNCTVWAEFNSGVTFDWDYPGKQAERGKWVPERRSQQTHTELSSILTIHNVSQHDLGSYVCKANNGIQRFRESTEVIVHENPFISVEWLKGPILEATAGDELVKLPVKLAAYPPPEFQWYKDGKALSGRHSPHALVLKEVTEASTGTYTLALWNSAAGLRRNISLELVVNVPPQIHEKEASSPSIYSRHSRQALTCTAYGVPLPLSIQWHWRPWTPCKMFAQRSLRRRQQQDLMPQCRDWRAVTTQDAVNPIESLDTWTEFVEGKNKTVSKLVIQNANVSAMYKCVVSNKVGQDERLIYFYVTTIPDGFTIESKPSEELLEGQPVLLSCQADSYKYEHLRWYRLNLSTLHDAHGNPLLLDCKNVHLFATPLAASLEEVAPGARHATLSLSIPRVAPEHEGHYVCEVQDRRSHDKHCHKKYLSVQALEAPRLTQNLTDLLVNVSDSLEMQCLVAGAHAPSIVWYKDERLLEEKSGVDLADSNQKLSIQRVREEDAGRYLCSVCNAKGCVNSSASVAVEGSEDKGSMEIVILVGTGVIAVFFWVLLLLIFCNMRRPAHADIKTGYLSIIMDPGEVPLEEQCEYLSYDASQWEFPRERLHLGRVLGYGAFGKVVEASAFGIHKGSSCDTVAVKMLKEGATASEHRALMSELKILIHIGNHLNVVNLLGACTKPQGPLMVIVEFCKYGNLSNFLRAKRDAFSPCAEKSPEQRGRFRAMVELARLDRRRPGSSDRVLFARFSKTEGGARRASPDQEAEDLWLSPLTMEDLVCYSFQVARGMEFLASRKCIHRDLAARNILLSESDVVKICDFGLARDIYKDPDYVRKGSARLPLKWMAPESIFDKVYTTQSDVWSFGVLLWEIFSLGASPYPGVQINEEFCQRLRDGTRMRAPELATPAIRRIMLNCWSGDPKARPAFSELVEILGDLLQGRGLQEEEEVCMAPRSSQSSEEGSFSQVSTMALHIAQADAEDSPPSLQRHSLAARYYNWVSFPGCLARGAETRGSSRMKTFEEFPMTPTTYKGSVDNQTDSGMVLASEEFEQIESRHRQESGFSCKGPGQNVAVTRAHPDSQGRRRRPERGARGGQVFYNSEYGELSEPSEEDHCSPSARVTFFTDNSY
T8 sequence (Q96GD4 whole entry): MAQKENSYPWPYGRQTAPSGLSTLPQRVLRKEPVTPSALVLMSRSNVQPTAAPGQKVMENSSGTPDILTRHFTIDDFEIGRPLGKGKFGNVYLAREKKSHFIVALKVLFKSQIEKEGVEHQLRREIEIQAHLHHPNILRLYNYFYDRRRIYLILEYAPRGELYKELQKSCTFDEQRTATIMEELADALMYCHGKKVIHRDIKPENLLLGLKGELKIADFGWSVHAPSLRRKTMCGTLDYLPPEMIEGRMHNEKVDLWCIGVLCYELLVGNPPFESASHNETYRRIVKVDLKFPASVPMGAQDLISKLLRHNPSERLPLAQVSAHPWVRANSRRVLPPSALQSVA
T1 sequence (Q02763 23-1124): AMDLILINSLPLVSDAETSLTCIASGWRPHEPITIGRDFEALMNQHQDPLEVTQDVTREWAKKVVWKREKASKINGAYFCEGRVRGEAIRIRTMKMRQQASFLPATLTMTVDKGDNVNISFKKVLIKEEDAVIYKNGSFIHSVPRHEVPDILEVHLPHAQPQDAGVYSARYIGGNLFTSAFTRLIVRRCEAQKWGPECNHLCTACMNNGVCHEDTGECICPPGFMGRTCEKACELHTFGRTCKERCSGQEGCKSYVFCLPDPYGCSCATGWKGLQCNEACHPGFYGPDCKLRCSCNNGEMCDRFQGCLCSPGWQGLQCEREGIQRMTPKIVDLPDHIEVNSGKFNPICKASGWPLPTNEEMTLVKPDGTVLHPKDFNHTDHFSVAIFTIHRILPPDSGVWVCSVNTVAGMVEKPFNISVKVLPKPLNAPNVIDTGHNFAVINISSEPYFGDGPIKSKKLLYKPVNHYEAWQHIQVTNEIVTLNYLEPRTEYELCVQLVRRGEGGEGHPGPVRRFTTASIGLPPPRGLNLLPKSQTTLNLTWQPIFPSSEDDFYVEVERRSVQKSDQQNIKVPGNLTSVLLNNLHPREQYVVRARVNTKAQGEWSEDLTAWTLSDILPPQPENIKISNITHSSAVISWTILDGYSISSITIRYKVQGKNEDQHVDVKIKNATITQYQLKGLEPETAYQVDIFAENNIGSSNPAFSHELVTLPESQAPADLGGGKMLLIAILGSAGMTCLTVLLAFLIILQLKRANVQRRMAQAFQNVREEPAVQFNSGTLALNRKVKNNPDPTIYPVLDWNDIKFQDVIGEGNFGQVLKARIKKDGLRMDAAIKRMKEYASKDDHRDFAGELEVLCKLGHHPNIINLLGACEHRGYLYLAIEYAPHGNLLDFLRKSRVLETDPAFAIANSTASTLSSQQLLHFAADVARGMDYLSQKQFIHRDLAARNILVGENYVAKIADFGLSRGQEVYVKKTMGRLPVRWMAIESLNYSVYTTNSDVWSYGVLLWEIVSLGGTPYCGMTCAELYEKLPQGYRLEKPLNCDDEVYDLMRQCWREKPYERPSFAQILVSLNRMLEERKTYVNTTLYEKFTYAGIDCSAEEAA

Row | pIC50 (TIE2) | pIC50 (Aurora A) | pIC50 (FLT3) | pIC50 (EGF-R) | pIC50 (VEGF-R3) | pIC50 (VEGF-R2 [1]) | pIC50 (PDGF-Rβ [2]) | pIC50 (Aurora B [3]) | pIC50 (PDGF-Rα) | pIC50 (TRK-A) | pIC50 (KIT) | pIC50 (IRAK4) | pIC50 (VEGF-R1) | pIC50 (LCK) | pIC50 (RET) | pIC50 (VEGF-R2 [4]) | pIC50 (PDGF-Rβ [5]) | pIC50 (Aurora B [6]) | Structure (SMILES)
1 | 6.00 | 6.80 | 4.96 | 4.70 | 5.55 | 5.70 | 4.82 | 6.21 | – | – | – | – | – | – | – | – | – | – | COc1cc2c(Nc3ncc(CCNC(=O)c4ccccc4)s3)ncnc2cc1OCCCN1CCCC1 [Compound 2, N-(2-{2-[6-methoxy-7-(3-pyrrolidin-1-yl-propoxy)-quinazolin-4-ylamino]-thiazol-5-yl}-ethyl)-benzamide]
2 | 5.47 | 6.00 | 5.05 | 5.40 | 6.25 | 6.41 | 4.96 | 5.62 | – | – | – | – | – | – | – | – | – | – | COC(=O)CCc1cnc(Nc2ncnc3cc(OC)c(OC)cc23)s1 [Compound 3, 3-[2-(6,7-dimethoxy-quinazolin-4-ylamino)-thiazol-5-yl]-propionic acid methyl ester]
3 | 4.85 | 5.22 | 5.27 | 4.21 | 5.96 | 6.02 | 4.57 | 5.64 | – | – | – | – | – | – | – | – | – | – | COc1cc2ncnc(Nc3ncc(CCC(=O)Nc4ccc(F)cc4)s3)c2cc1OC [Compound 8, 3-(2-(6,7-dimethoxyquinazolin-4-ylamino)thiazol-5-yl)-N-(4-fluorophenyl)propanamide]
4 | 6.37 | 6.15 | 6.22 | 5.00 | 6.96 | 7.02 | 5.96 | 6.33 | 6.00 | 6.37 | 6.96 | 5.66 | 6.19 | 5.64 | 6.06 | – | – | – | COc1cc2c(Nc3ncc(CCC(=O)Nc4ccc(F)cc4)s3)ncnc2cc1OCCCN1CCCC1 [Compound 9, N-(4-fluorophenyl)-3-(2-(6-methoxy-7-(3-(pyrrolidin-1-yl)propoxy)quinazolin-4-ylamino)thiazol-5-yl)propanamide]
5 | 4.68 | 5.89 | 4.60 | 4.37 | 5.96 | 5.82 | 4.39 | 5.54 | – | – | – | – | – | – | – | – | – | – | COc1cc2ncnc(Nc3ncc(CCC(=O)Nc4cccc(F)c4)s3)c2cc1OC [Compound 7, 3-(2-(6,7-dimethoxyquinazolin-4-ylamino)thiazol-5-yl)-N-(3-fluorophenyl)propanamide]
6 | 6.05 | 7.00 | 5.26 | – | 5.66 | 5.59 | 4.96 | 6.44 | – | – | – | – | – | – | – | 4.85 | 5.96 | 5.96 | COc1cc2c(Nc3ncc(CCNC(=O)c4cccc(F)c4)s3)ncnc2cc1OCCCN1CCCC1 [Compound 1, 3-fluoro-N-(2-{2-[6-methoxy-7-(3-pyrrolidin-1-yl-propoxy)-quinazolin-4-ylamino]-thiazol-5-yl}-ethyl)-benzamide]
7 | 6.44 | 6.40 | 6.42 | 4.54 | 7.13 | 7.19 | 6.25 | 6.21 | – | – | – | – | – | – | – | – | – | – | COc1cc2c(Nc3ncc(CCC(=O)Nc4cccc(F)c4)s3)ncnc2cc1OCCCN1CCCC1 [Compound 5, N-(3-fluoro-phenyl)-3-{2-[6-methoxy-7-(3-pyrrolidin-1-yl-propoxy)-quinazolin-4-ylamino]-thiazol-5-yl}-propionamide]
